Test results from article PMC5363571 (Oncotarget, 2016).
Structures can show the parent of a compound that is named as a salt.

Target: USP7 (Homo sapiens, UniProt Q93009)
Assay: biochemical
Parameters: Ub-AMC hydrolysis by recombinant USP7 (20 nM), 30 min pre-incubation, fluorescence read-out
Conditions: read-out: % Inhibition at 50 μM

Sequence of USP7 (Q93009 whole entry): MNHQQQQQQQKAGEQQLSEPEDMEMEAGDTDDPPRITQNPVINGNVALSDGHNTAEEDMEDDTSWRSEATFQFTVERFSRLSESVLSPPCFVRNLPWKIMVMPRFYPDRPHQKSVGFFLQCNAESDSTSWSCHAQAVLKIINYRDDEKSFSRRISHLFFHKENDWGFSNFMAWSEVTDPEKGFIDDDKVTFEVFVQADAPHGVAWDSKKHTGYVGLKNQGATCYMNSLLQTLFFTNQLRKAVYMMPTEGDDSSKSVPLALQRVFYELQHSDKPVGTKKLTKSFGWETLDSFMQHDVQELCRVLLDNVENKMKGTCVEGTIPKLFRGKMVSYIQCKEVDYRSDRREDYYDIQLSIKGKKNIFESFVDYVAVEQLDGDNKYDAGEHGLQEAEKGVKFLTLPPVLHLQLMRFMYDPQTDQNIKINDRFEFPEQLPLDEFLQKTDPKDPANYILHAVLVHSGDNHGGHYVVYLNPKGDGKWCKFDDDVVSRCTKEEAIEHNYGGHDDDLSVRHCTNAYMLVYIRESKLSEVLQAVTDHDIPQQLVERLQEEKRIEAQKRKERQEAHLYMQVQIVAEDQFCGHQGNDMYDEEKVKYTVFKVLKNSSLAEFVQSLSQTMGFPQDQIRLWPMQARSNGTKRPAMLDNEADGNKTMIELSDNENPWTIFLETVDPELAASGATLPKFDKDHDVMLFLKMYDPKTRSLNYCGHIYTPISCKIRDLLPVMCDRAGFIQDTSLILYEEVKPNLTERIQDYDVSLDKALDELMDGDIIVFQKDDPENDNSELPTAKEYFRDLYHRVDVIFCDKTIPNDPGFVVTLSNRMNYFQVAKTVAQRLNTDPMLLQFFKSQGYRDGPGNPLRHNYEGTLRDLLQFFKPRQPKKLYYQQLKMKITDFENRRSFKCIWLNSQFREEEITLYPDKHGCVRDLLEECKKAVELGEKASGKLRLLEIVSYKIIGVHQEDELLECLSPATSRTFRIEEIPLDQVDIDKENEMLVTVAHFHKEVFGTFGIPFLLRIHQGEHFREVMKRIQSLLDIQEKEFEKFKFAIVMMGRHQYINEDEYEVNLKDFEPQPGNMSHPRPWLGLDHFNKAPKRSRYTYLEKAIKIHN

Row | SMILES | inhibition at 50 µM [%]
1 | CC(C)c1cccc(C(C)C)c1O [Propofol] | < 5
2 | COc1ccccc1O [Guaiacol] | < 5
3 | COc1cc2c(cc1OC)C(=O)C(CC1CCN(Cc3ccccc3)CC1)C2 (centres unmarked) [Donepezil HCl] | < 5
4 | Cc1[nH]c(=O)c(C#N)cc1-c1ccncc1 [Milrinone] | < 5
5 | CO[C@@]12[C@H](COC(N)=O)C3=C(C(=O)C(C)=C(N)C3=O)N1C[C@@H]1N[C@@H]12 [Mitomycin c] | 31.5
6 | C[N+]1(C)[C@@H]2C[C@@H](OC(=O)C(O)(c3cccs3)c3cccs3)C[C@H]1[C@@H]1O[C@@H]12 [Tiotropium Br] | < 5
7 | Oc1ccc2c3c1O[C@H]1c4[nH]c5ccccc5c4C[C@@]4(O)[C@@H](C2)N(CC2CC2)CC[C@]314 [Naltrindole HCl] | < 5
8 | O=C(O)CCCc1ccccc1 [Sodium phenylbutyrate] | < 5
9 | COc1cc(-c2ccc(=O)[nH]n2)ccc1OC(F)F [Zardaverine] | < 5
10 | CCCCc1nc(Cl)c(CO)n1Cc1ccc(-c2ccccc2-c2nnn[nH]2)cc1 [Losartan potassium] | < 5
11 | CN1CCC(=C2c3ccccc3C=Cc3ccccc32)CC1 [Cyproheptadine] | < 5
12 | CCCCc1oc2ccccc2c1C(=O)c1cc(I)c(OCCN(CC)CC)c(I)c1 [Amiodarone] | < 5
13 | CN1[C@@H]2CC[C@H]1C[C@@H](OC(=O)C(CO)c1ccccc1)C2 (some centres unmarked) [Atropine sulfate] | < 5
14 | Cc1ccc(C(=O)Nc2ccc(S(=O)(=O)O)c3cc(S(=O)(=O)O)cc(S(=O)(=O)O)c23)cc1NC(=O)c1cccc(NC(=O)Nc2cccc(C(=O)Nc3cc(C(=O)Nc4ccc(S(=O)(=O)O)c5cc(S(=O)(=O)O)cc(S(=O)(=O)O)c45)ccc3C)c2)c1 [Suramin sodium] | < 5
15 | Nc1nc(N)nc(-c2cc(Cl)ccc2Cl)n1 [Irsogladine maleate] | < 5
16 | Nc1c(Br)cc(Br)cc1CN[C@H]1CC[C@H](O)CC1 [Ambroxol] | < 5
17 | COc1cc(NS(=O)(=O)c2ccc(N)cc2)nc(OC)n1 [Sulfadimethoxine] | < 5
18 | CN1CCc2cccc3c2[C@H]1Cc1ccc(O)c(O)c1-3 [Apomorphine r (-)] | < 5
19 | CC(CCc1ccc(O)cc1)NCCc1ccc(O)c(O)c1 (centres unmarked) [Dobutamine HCl] | < 5
20 | Clc1ccc(CCC(Cn2ccnc2)Sc2c(Cl)cccc2Cl)cc1 (centres unmarked) [Butoconazole nitrate] | < 5
21 | CCCCC[C@H](O)/C=C/[C@H]1[C@H](O)CC(=O)[C@@H]1CCCCCCC(=O)O [Alprostadil] | < 5
22 | Cn1c(=O)c2[nH]cnc2n(C)c1=O [Aminophylline] | < 5
23 | c1ccc2c(CC3=NCCN3)cccc2c1 [Naphazoline HCl] | < 5
24 | CSc1ccc2c(c1)N(CCC1CCCCN1C)c1ccccc1S2 (centres unmarked) [Thioridazine HCl] | < 5
25 | COc1cc([C@@H]2c3cc4c(cc3[C@@H](O[C@@H]3O[C@@H]5CO[C@@H](C)O[C@H]5[C@H](O)[C@H]3O)[C@H]3COC(=O)[C@H]23)OCO4)cc(OC)c1O [Etoposide] | < 5

Row | SMILES | inhibition at 50 µM [%]
26 | O=C1NC(=O)C(c2ccccc2)(c2ccccc2)N1 [Phenytoin] | < 5
27 | CNC1(C)C2CCC(C2)C1(C)C (centres unmarked) [Mecamylamine HCl] | < 5
28 | CC1(C)CC[C@]2(C(=O)O)CCC3=C([C@@H](CCl)C[C@@H]4[C@@]5(C)C[C@H](O)[C@H](O)[C@@](C)(C(=O)O)[C@@H]5CC[C@@]34C)[C@@H]2C1 [Senegenin] | < 5
29 | O=C1C[C@@H]2OCC=C3CN4CC[C@]56c7ccccc7N1[C@H]5[C@H]2[C@H]3C[C@H]46 [Strychnine HCl] | < 5
30 | CCN1CCCC1CNC(=O)c1cc(S(=O)(=O)CC)c(N)cc1OC (centres unmarked) [Amisulpride] | < 5
31 | CN(C)CCCOc1nn(Cc2ccccc2)c2ccccc12 [Benzydamine] | < 5
32 | COC(=O)c1ccc(O)c2nc3c(C=O)c(O)cc(O)c3nc12 [Lomofungin] | < 5
33 | CC(C)(CO)[C@@H](O)C(=O)NCCC(=O)O [Pantothenic acid] | < 5
34 | CC(NC(C)(C)C)C(=O)c1cccc(Cl)c1 (centres unmarked) [Amfebutamone] | < 5
35 | C[C@@](Cc1ccc(O)c(O)c1)(NN)C(=O)O [Carbidopa] | < 5
36 | CO[C@@H]1[C@H](OC(=O)/C=C/C=C/C=C/C=C/C(=O)O)CC[C@]2(CO2)[C@H]1[C@@]1(C)O[C@@H]1CC=C(C)C [Fumagillin] | < 5
37 | COC(=O)C1=C(C)NC(C)=C(C(=O)OCCCN2CCC(c3ccccc3)(c3ccccc3)CC2)[C@H]1c1cccc([N+](=O)[O-])c1 [Niguldipine HCl] | < 5
38 | CC(C)(C)NCC(O)c1ccc(O)c(CO)c1 (centres unmarked) [Salbutamol sulfate] | < 5
39 | CCN1CCC[C@H]1CNC(=O)c1cc(S(N)(=O)=O)ccc1OC [Sulpiride s (-)] | < 5
40 | C[C@@H](O[C@H]1OCCN(Cc2n[nH]c(=O)[nH]2)[C@H]1c1ccc(F)cc1)c1cc(C(F)(F)F)cc(C(F)(F)F)c1 [Aprepitant] | < 5
41 | CC(C)COCC(CN(Cc1ccccc1)c1ccccc1)N1CCCC1 (centres unmarked) [Bepridil] | < 5
42 | CC(=O)O[C@@]12CO[C@@H]1C[C@H](O)[C@@]1(C)C(=O)[C@H](O)C3=C(C)[C@@H](OC(=O)[C@H](O)[C@@H](NC(=O)OC(C)(C)C)c4ccccc4)C[C@@](O)([C@@H](OC(=O)c4ccccc4)[C@H]21)C3(C)C [Docetaxil] | < 5
43 | O=C1CC[C@@]2(O)[C@H]3Cc4ccc(O)c5c4[C@@]2(CCN3CC2CC2)[C@H]1O5 [Naltrexone HCl] | < 5
44 | CCCCCCCCCCCCCCCCOP(=O)([O-])OCC[N+](C)(C)C [Miltefosine] | 6.5
45 | CN1[C@@H](CC(=O)c2ccccc2)CCC[C@H]1C[C@H](O)c1ccccc1 [Lobeline] | < 5
46 | OCc1cc(C(O)CNCCCCCCOCCCCc2ccccc2)ccc1O (centres unmarked) [Salmeterol] | < 5
47 | C[C@H]1O[C@@H](n2cc(F)c(=O)[nH]c2=O)[C@H](O)[C@@H]1O [Doxifluridine] | < 5
48 | CN1CCN2c3ccccc3Cc3ccccc3C2C1 (centres unmarked) [Mianserin hcl] | 21.3
49 | CN(C)CCC[C@@]1(c2ccc(F)cc2)OCc2cc(C#N)ccc21 [Escitalopram] | < 5
50 | CCN(CC)CC(=O)Nc1c(C)cccc1C [Lidocaine] | < 5

Row | SMILES | inhibition at 50 µM [%]
51 | CO[C@H]1C[C@@H]2CC[C@@H](C)[C@@](O)(O2)C(=O)C(=O)N2CCCC[C@H]2C(=O)O[C@H]([C@H](C)C[C@@H]2CC[C@@H](O)[C@H](OC)C2)CC(=O)[C@H](C)/C=C(\C)[C@@H](O)[C@@H](OC)C(=O)[C@H](C)C[C@H](C)/C=C/C=C/C=C/1C [Rapamycin] | < 5
52 | O=c1[nH]c2ccccc2n1C1CCN(CCCC(c2ccc(F)cc2)c2ccc(F)cc2)CC1 [Pimozide] | < 5
53 | CC(C)(C)NCC(O)c1ccccc1Cl (centres unmarked) [Tulobuterol] | 16.5
54 | CC(C)OC(=O)CCC/C=C\C[C@@H]1[C@@H](CC[C@@H](O)CCc2ccccc2)[C@H](O)C[C@@H]1O [Latanoprost] | 6.9
55 | CCC1=C[C@@H]2CN(C1)Cc1c([nH]c3ccccc13)[C@@](C(=O)OC)(c1cc3c(cc1OC)N(C)[C@H]1[C@@](O)(C(=O)OC)[C@H](OC(C)=O)[C@]4(CC)C=CCN5CC[C@]31[C@@H]54)C2 [Vinorelbine] | 45.3
56 | CCN(CC)CCNC(=O)c1ccc(N)cc1 [Procainamide] | < 5
57 | O=C1CCc2ccc(OCCCCN3CCN(c4cccc(Cl)c4Cl)CC3)cc2N1 [Aripiprazole] | < 5
58 | CCCN1C[C@H](CSC)C[C@@H]2c3cccc4[nH]cc(c34)C[C@H]21 [Pergolide mesylate] | < 5
59 | COc1cc2nc(N3CCN(C(=O)C4COc5ccccc5O4)CC3)nc(N)c2cc1OC (centres unmarked) [Doxazosin mesylate] | < 5
60 | CC(N/C(=N\C#N)Nc1ccncc1)C(C)(C)C (centres unmarked) [Pinacidil] | < 5
61 | CN(C(=O)CCCOc1ccc2[nH]c(=O)ccc2c1)C1CCCCC1 [Cilostamide] | < 5
62 | C#C[C@]1(O)CC[C@H]2[C@@H]3CCC4=Cc5oncc5C[C@]4(C)[C@H]3CC[C@@]21C [Danazol] | < 5
63 | O=C(O)c1cc(-c2ccc(F)cc2F)ccc1O [Diflunisal] | 31.5
64 | CCCCN1C[C@H](O)[C@@H](O)[C@H](O)[C@H]1CO [Miglustat] | < 5
65 | CC(=O)S[C@@H]1CC2=CC(=O)CC[C@]2(C)[C@H]2CC[C@@]3(C)[C@@H](CC[C@@]34CCC(=O)O4)[C@H]12 [Spironolactone] | 36.4
66 | CN1C[C@@H](NS(=O)(=O)N(C)C)C[C@@H]2c3cccc4c3c(cn4C)C[C@H]21 [Mesulergine HCl] | < 5
67 | O=C1CN2Cc3c(ccc(Cl)c3Cl)N=C2N1 [Anagrelide] | 8.4
68 | CN(C)CCc1c[nH]c2ccc(C[C@H]3COC(=O)N3)cc12 [zolmitriptan] | < 5
69 | C[C@H]1[C@H](C)CC[C@]2(C(=O)O)CC[C@]3(C)C(=CC[C@@H]4[C@@]5(C)C[C@@H](O)[C@H](O)[C@@](C)(CO)[C@@H]5[C@H](O)C[C@]43C)[C@H]12 [Madecassic acid] | < 5
70 | C[C@H](N[C@@H](CCc1ccccc1)C(=O)O)C(=O)N1CCC[C@H]1C(=O)O [Enalaprilat] | < 5
71 | CCN(CC)C(=S)SSC(=S)N(CC)CC [Disulfiram] | < 5
72 | CC[C@H]1OC(=O)[C@H](C)[C@@H](O[C@H]2C[C@@](C)(OC)[C@@H](O)[C@H](C)O2)[C@H](C)[C@@H](O[C@@H]2O[C@H](C)C[C@H](N(C)C)[C@H]2O)[C@](C)(OC)C[C@@H](C)C(=O)[C@H](C)[C@@H](O)[C@]1(C)O [Clarithromycin] | < 5
73 | CC[C@H](C)C(=O)O[C@H]1CCC=C2C=C[C@H](C)[C@H](CC[C@@H]3C[C@@H](O)CC(=O)O3)[C@H]21 [Mevastatin] | < 5
74 | COCCOC(=O)C1=C(C)NC(C)=C(C(=O)OC/C=C/c2ccccc2)C1c1cccc([N+](=O)[O-])c1 (centres unmarked) [Cilnidipine] | < 5
